Columns and labels:
EGFR-WT = EGFR-WT (Homo sapiens (Human), UniProt P00533); experiment: Enzymatic activity test (ADP-Glo) EGFR-WT; type: biochemical; details: kinase
Experimental: • 1. […] Test information:
To assess the effect of compounds on the activity of wild-type and mutant EGFR kinases, kinase activity was tested by measuring ATP consumption in an enzymatic reaction using an ADP-Glo (Promega Corporation) kit. Samples to be tested were dissolved in DMSO and diluted in a gradient. In a microplate, an EGFR kinase, a reaction buffer (containing Tris-HCl with a pH of 7.5, MgCl2, DTT and BSA), a kinase substrate Poly(Glu4, Tyr1) and a sample (a total volume of 20 μL per well) were added per well, while a blank control (no enzyme and sample) and a negative control (no sample) were set up; incubated for 15 minutes at 23° C.; added with 5 μL of ATP, and reacted at 23° C. for 60 minutes; added with ADP-Glo Reagent, and continuously reacted for 40 minutes at room temperature to inactivate the redundant ATP; then, added with a Kinase Detection Reagent, and reacted at room temperature for 30 minutes, then the chemiluminescence intensity L of each well was measured. […] IC50 values were calculated according to the above calculation using 4Parameter Logistic Model in XLfit software. • 3.

[1] = Pharmacokinetic test in SD rats; type: in vivo; details: male, rat, plasma, PO, 20 mg/kg
Experimental: Six SD rats were taken, which were all male, and about 8-9 weeks old, weighing about 430 g/rat, and fasting but allowed to drink water for 18 hours.
The rats were divided into two groups, wherein the rats in group 1 were dosed with compound 2 and the rats in group 2 were dosed with control compound 4, both orally and intragastrically in a dose of 20 mg/kg. A lavage fluid was prepared using 70 mM citric acid buffer (pH 3.0) at an administration volume of 5 mL/kg.
0.6 mL of blood (EDTA-2K anti-coagulated) was collected from rat orbits at 0.5, 1.5, 3, 4.5, 8, 12, 24, 36, 48 and 72 hours after the administration respectively. The plasma was separated and stored at −70° C., and the plasma samples were analyzed using liquid chromatography tandem mass spectrometry (LC-MS/MS). The plasma concentration-time data of the individual rates was analyzed using a non-compartmental model of DAS3.3.1 software and pharmacokinetic parameters of the test compounds were calculated.

[2] = test system: BaF3 EGFR-DTC(C797S/T790M/Del19) cells; experiment: In-vivo pharmacodynamic study, transplanted tumor model of BaF3 EGFR-DTC(C797S/T790M/Del19) cells in nude mice; parameters: species or system BALB/c nude mice
Experimental: The models used in this test were subcutaneous transplanted tumor models of engineered BaF3 EGFR-DTC(C797S/T790M/Del19) cells in BALB/c nude mice. The engineered BaF3 cells were cultured in vitro suspension. […] Passages were treated twice a week. When the cell number reached requirement, the cells were collected, counted and inoculated. 0.2 mL (10^6) cells (added with matrigel, 1:1 by volume) were subcutaneously inoculated in the right back of each mouse, and divided into groups for administration with 6 mice per group when the mean tumor volume reached 109 mm^3.
Administration mode and frequency: Oral gavage was carried out with an administration volume of 10 mL/kg, and the model group was administered with the same volume of solvent. The administration was once per day and continuously carried out for 14 days.
General conditions such as spirit, activity, food intake and the like of the mice were observed every day, and the weight was measured thrice every week; the short diameter (a) and the long diameter (b) of each mouse tumor were measured thrice a week with a vernier caliper, and the tumor volume was calculated according to the formula (a^2×b)/2. The Relative Tumor Volume (RTV) was calculated from the measured tumor volume, wherein RTV=Vt/V0, wherein V0 was the tumor volume at random grouping (i.e., d0) and Vt was the tumor volume at each measurement (i.e., dn). The relative tumor proliferation rate of the evaluation index of the anti-tumor activity was calculated according to the following formula: relative tumor proliferation rate T/C (%): […]
(Note: TRTV: treatment group RTV; CRTV: model control group RTV. According to the therapeutic effect evaluation standard in the Technical Guidelines for Non-clinical Research of Cytotoxic Anti-tumor Drugs Issued by National Medical Products Administration of China, the value (T/C %≤40%) was effective).

[3] = Single administration toxicity test, orally intragastric administration to SD rats; type: in vivo; details: for Mortality Female: 5 female rats; for Mortality Female / Mortality Male / Mortality/total number of animals: day 15; for Mortality Male: 5 male rats
Experimental: 8-week-old SD rats, 10 per group, male and female half, were purchased from Beijing SiPeiFu. The rats were tested after 3 days of acclimatization in this laboratory. The oral administration was performed by intragastric administration with an administration volume of 10 mL/kg. The rats were fasted and not forbidden to drink water for 17 hours before administration. The rats in the control group were given an equal volume of solvent via oral gavage. The feeding was resumed about 2 hours after the end of the administration.
Observations were made twice daily after the administration. The day of first administration was defined as day 1 of the test. The test was carried out for 14 consecutive days, and ended in day 15.

[4] = 25 mg/kg oral gavage once per day
[5] = 50 mg/kg oral gavage once per day

Sequence of EGFR-WT (P00533 25-1210): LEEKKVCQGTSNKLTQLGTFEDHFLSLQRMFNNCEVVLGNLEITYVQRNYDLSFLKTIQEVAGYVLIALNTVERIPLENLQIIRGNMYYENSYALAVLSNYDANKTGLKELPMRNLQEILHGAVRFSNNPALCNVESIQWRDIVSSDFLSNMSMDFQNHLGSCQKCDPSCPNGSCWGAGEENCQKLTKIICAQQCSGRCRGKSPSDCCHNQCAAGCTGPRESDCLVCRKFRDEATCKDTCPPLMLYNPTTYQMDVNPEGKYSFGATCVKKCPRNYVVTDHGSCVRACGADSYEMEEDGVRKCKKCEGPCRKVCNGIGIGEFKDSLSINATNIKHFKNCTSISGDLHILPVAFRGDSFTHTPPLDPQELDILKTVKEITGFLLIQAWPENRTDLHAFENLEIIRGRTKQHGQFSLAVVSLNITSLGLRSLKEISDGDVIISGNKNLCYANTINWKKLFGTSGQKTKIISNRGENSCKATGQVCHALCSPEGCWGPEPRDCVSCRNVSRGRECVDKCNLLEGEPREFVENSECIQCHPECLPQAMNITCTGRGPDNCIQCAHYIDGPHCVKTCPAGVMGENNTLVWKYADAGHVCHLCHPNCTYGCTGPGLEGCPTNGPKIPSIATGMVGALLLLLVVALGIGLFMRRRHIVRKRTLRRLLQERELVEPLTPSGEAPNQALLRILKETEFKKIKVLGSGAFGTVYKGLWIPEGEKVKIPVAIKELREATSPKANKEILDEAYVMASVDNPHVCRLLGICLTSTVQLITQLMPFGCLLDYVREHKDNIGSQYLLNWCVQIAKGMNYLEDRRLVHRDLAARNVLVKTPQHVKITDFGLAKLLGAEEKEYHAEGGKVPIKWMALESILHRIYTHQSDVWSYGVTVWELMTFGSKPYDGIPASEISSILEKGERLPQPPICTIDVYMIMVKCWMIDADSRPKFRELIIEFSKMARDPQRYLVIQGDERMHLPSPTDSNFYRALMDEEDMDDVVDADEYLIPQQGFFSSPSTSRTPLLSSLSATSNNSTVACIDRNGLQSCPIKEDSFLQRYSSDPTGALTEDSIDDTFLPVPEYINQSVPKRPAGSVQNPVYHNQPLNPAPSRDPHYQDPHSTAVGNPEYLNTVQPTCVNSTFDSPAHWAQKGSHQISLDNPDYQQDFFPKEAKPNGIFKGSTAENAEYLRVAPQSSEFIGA

SMILES: COc1cc(N2CCC(N3CCN(C)CC3)CC2)c(Cl)cc1Nc1ncc(Br)c(Nc2ccc(C)cc2P(C)(C)=O)n1 [Compound 14]
- IC50 (EGFR-WT): 65.9 nM

SMILES: COc1cc(N2CCC(N3CCN(C)CC3)CC2)c(C)cc1Nc1ncc(Br)c(Nc2ccc(C)cc2P(C)(C)=O)n1 [Compound 2]
- AUC(0-t) [1]: 96300 ng·h/mL
- Cmax [1]: 2310 ng/mL
- Tumor volume Day 0 [2, 4]: 109 mm^3
- Relative tumor proliferation rate T/C Day 3 [2, 4]: 59.22%
- Tumor volume Day 3 [2, 4]: 87 mm^3
- Relative tumor proliferation rate T/C Day 5 [2, 4]: 34.07%
- Tumor volume Day 5 [2, 4]: 62 mm^3
- Relative tumor proliferation rate T/C Day 7 [2, 4]: 10.38%
- Tumor volume Day 7 [2, 4]: 41 mm^3
- Relative tumor proliferation rate T/C Day 10 [2, 4]: 5.06%
- Tumor volume Day 10 [2, 4]: 31 mm^3
- Relative tumor proliferation rate T/C Day 12 [2, 4]: 3.12%
- Tumor volume Day 12 [2, 4]: 27 mm^3
- Tumor volume Day 14 [2, 4]: 41 mm^3
- Tumor volume Day 0 [2, 5]: 109 mm^3
- Relative tumor proliferation rate T/C Day 3 [2, 5]: 44.97%
- Tumor volume Day 3 [2, 5]: 67 mm^3
- Relative tumor proliferation rate T/C Day 5 [2, 5]: 24.07%
- Tumor volume Day 5 [2, 5]: 44 mm^3
- Relative tumor proliferation rate T/C Day 7 [2, 5]: 7.97%
- Tumor volume Day 7 [2, 5]: 32 mm^3
- Relative tumor proliferation rate T/C Day 10 [2, 5]: 3.62%
- Tumor volume Day 10 [2, 5]: 22 mm^3
- Relative tumor proliferation rate T/C Day 12 [2, 5]: 1.91%
- Tumor volume Day 12 [2, 5]: 17 mm^3
- Tumor volume Day 14 [2, 5]: 12 mm^3
- Mortality Female ([3]; 25 mg/kg single dose): 0
- Mortality Male ([3]; 25 mg/kg single dose): 0
- Mortality/total number of animals ([3]; 25 mg/kg single dose): 0/10
- Mortality Female ([3]; 75 mg/kg single dose): 0
- Mortality Male ([3]; 75 mg/kg single dose): 0
- Mortality/total number of animals ([3]; 75 mg/kg single dose): 0/10
- Mortality Female ([3]; 100 mg/kg single dose): 0
- Mortality Male ([3]; 100 mg/kg single dose): 0
- Mortality/total number of animals ([3]; 100 mg/kg single dose): 0/10
- Mortality Female ([3]; 125 mg/kg single dose): 0
- Mortality Male ([3]; 125 mg/kg single dose): 0
- Mortality/total number of animals ([3]; 125 mg/kg single dose): 0/10
- Mortality Female ([3]; 150 mg/kg single dose): 0
- Mortality Male ([3]; 150 mg/kg single dose): 1
- Mortality/total number of animals ([3]; 150 mg/kg single dose): 1/10
- Mortality Female ([3]; 200 mg/kg single dose): 0
- Mortality Male ([3]; 200 mg/kg single dose): 0
- Mortality/total number of animals ([3]; 200 mg/kg single dose): 0/10
- MTD at 14 days ([3]; both sexes, rat, in vivo, po, SD rats, single orally intragastric administration, read-out: Maximum Tolerated Dose (MTD)): 125 mg/kg

From US20230322822A1, “ARYL PHOSPHOROUS OXIDE COMPOUNDS AND USE THEREOF” (Chengdu Di'ao Jiuhong Pharmaceutical Factory, priority 2020, published 2023)
